Reference: patent US9149038B2, “4-amino-6-(heterocyclic)picolinates and 6-amino-2-(heterocyclic)pyrimidine-4-carboxylates and their use as herbicides” (Dow AgroSciences LLC, priority 2013, dated 2015)
Like-named read-outs stand apart in the source and are kept apart here.

Experiments:
[1] = system: Key Grass and Sedge Weeds as well as Grass Crops; assay: Post-Emergent Test II: postemergent herbicidal activity, visual rating after 14 d (Table 8); format: in vivo; settings: post-emergence, 336 h; for pest or weed control at 35 g/ha: 35 g ai/ha; for pest or weed control at 70 g/ha: 70 g ai/ha; for pest or weed control at 140 g/ha: 140 g ai/ha
Method in brief: (§1)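 Visual scoring at 14 d, 0 (no injury) to 100 (complete kill), relative to untreated plants. Postemergent overhead track-sprayer application, 187 L/ha, at a top rate plus serial ½×–1/16× rates, to plants grown 7–21 d at about 23–29° C day under a 15 h photoperiod, then subirrigated.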

[2] = system: Key Broadleaf Weed and Crop Species; assay: Post-Emergent Test II: postemergent herbicidal activity, visual rating after 14 d (Table 7); format: in vivo; settings: post-emergence, 336 h; for pest or weed control at 35 g/ha: 35 g ai/ha; for pest or weed control at 70 g/ha: 70 g ai/ha; for pest or weed control at 140 g/ha: 140 g ai/ha
Method in brief: as §1

[3] = barnyardgrass (Echinochloa crus-galli), read-out: Visual Growth Reduction (%) 14 Days After Application ECHCG
[4] = giant foxtail (Setaria faberi), read-out: Visual Growth Reduction (%) 14 Days After Application SETFA
[5] = maize, corn (Zea mays), read-out: Visual Growth Reduction (%) 14 Days After Application ZEAMX
[6] = rice (Oryza sativa), read-out: Visual Growth Reduction (%) 14 Days After Application ORYSA
[7] = wheat, spring (Triticum aestivum), read-out: Visual Growth Reduction (%) 14 Days After Application TRZAS
[8] = yellow nutsedge (Cyperus esculentus), read-out: Visual Growth Reduction (%) 14 Days After Application CYPES
[9] = lambsquarters (Chenopodium album), read-out: Visual Growth Reduction (%) 14 Days After Application CHEAL
[10] = oilseed rape, canola (Brassica napus), read-out: Visual Growth Reduction (%) 14 Days After Application BRSNN
[11] = redroot pigweed (Amaranthus retroflexus), read-out: Visual Growth Reduction (%) 14 Days After Application AMARE
[12] = sunflower (Helianthus annuus), read-out: Visual Growth Reduction (%) 14 Days After Application HELAN
[13] = velvetleaf (Abutilon theophrasti), read-out: Visual Growth Reduction (%) 14 Days After Application ABUTH
[14] = wild poinsettia (Euphorbia heterophylla), read-out: Visual Growth Reduction (%) 14 Days After Application EPHHL

Row | Structure (SMILES) | pest or weed control at 35 g/ha [1, 3] | pest or weed control at 70 g/ha [1, 3] | pest or weed control at 140 g/ha [1, 3] | pest or weed control at 35 g/ha [1, 4] | pest or weed control at 70 g/ha [1, 4] | pest or weed control at 140 g/ha [1, 4] | pest or weed control at 35 g/ha [1, 5] | pest or weed control at 70 g/ha [1, 5] | pest or weed control at 140 g/ha [1, 5] | pest or weed control at 35 g/ha [1, 6] | pest or weed control at 70 g/ha [1, 6] | pest or weed control at 140 g/ha [1, 6] | pest or weed control at 35 g/ha [1, 7] | pest or weed control at 70 g/ha [1, 7] | pest or weed control at 140 g/ha [1, 7] | pest or weed control at 35 g/ha [1, 8] | pest or weed control at 70 g/ha [1, 8] | pest or weed control at 140 g/ha [1, 8] | pest or weed control at 35 g/ha [2, 9] | pest or weed control at 70 g/ha [2, 9] | further results
1 | COC(=O)c1nc(-c2ccc3c(c2F)OC(F)(F)O3)c(F)c(N)c1Cl [Compound 10] | 95 to 100% | 95 to 100% | 95 to 100% | 75 to 84% | 95 to 100% | 95 to 100% | 60 to 74% | 75 to 84% | 75 to 84% | 0 to 29% | 0 to 29% | 0 to 29% | 45 to 59% | 60 to 74% | 60 to 74% | 95 to 100% | 95 to 100% | 95 to 100% | 85 to 94% | 85 to 94% | pest or weed control at 140 g/ha [2, 9]: 95 to 100%; pest or weed control at 35 g/ha [2, 10]: 75 to 84%; pest or weed control at 70 g/ha [2, 10]: 85 to 94%; pest or weed control at 140 g/ha [2, 10]: 85 to 94%; pest or weed control at 35 g/ha [2, 11]: 85 to 94%; pest or weed control at 70 g/ha [2, 11]: 95 to 100%; pest or weed control at 140 g/ha [2, 11]: 95 to 100%; pest or weed control at 35 g/ha [2, 12]: 85 to 94%; pest or weed control at 70 g/ha [2, 12]: 85 to 94%; pest or weed control at 140 g/ha [2, 12]: 85 to 94%; pest or weed control at 35 g/ha [2, 13]: 85 to 94%; pest or weed control at 70 g/ha [2, 13]: 95 to 100%; pest or weed control at 140 g/ha [2, 13]: 95 to 100%; pest or weed control at 35 g/ha [2, 14]: 95 to 100%; pest or weed control at 70 g/ha [2, 14]: 95 to 100%; pest or weed control at 140 g/ha [2, 14]: 95 to 100%
2 | Nc1c(Cl)c(C(=O)O)nc(-c2cc3c(cc2F)OC(F)(F)O3)c1Cl [Compound 3] | 0 to 29% | 0 to 29% | 0 to 29% | 0 to 29% | 0 to 29% | 0 to 29% | 0 to 29% | 0 to 29% | 0 to 29% | 0 to 29% | 0 to 29% | 0 to 29% | 0 to 29% | 0 to 29% | 0 to 29% | 0 to 29% | 0 to 29% | 0 to 29% | 0 to 29% | 0 to 29% | pest or weed control at 140 g/ha [2, 9]: 45 to 59%; pest or weed control at 35 g/ha [2, 10]: 0 to 29%; pest or weed control at 70 g/ha [2, 10]: 0 to 29%; pest or weed control at 140 g/ha [2, 10]: 0 to 29%; pest or weed control at 35 g/ha [2, 11]: 0 to 29%; pest or weed control at 70 g/ha [2, 11]: 95 to 100%; pest or weed control at 140 g/ha [2, 11]: 95 to 100%; pest or weed control at 35 g/ha [2, 12]: 0 to 29%; pest or weed control at 70 g/ha [2, 12]: 0 to 29%; pest or weed control at 140 g/ha [2, 12]: 85 to 94%; pest or weed control at 35 g/ha [2, 13]: 0 to 29%; pest or weed control at 70 g/ha [2, 13]: 0 to 29%; pest or weed control at 140 g/ha [2, 13]: 0 to 29%; pest or weed control at 35 g/ha [2, 14]: 0 to 29%; pest or weed control at 70 g/ha [2, 14]: 0 to 29%; pest or weed control at 140 g/ha [2, 14]: 0 to 29%
